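In this assay, cells in 96-well plates receive the compound at five concentrations for 48 hours. Endpoints are linearly interpolated between the surrounding concentrations. GI50 marks 50% less growth. Definition used: TGI = concentration required for complete inhibition of growth.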
Legend:
Test in all cases: NCI tumour cell line growth inhibition, 48 h
[1] = system: M14 melanoma
[2] = system: MDA-MB-435
[3] = system: NCI-H226 lung
[4] = system: OVCAR-8 ovarian
[5] = system: RXF 393 renal
[6] = system: SK-MEL-28 melanoma
[7] = system: SK-MEL-5 melanoma
[8] = system: SK-OV-3 ovarian
[9] = system: SNB-75 CNS
[10] = system: UO-31 renal

Row | SMILES | GI50 [1] [µM] | TGI [1] [µM] | GI50 [2] [µM] | TGI [2] [µM] | GI50 [3] [µM] | TGI [3] [µM] | GI50 [4] [µM] | TGI [4] [µM] | GI50 [5] [µM] | TGI [5] [µM] | GI50 [6] [µM] | TGI [6] [µM] | GI50 [7] [µM] | TGI [7] [µM] | GI50 [8] [µM] | TGI [8] [µM] | GI50 [9] [µM] | TGI [9] [µM] | GI50 [10] [µM] | TGI [10] [µM]
1 | Fc1ccc2[nH]cc(-c3nonc3-c3c[nH]c4ccc(Br)cc34)c2c1 | 1.87 | 4.98 | 3.27 | 12.3 | 2.13 | 5.3 | 3.38 | 17.5 | 2.85 | 8.75 | 2.86 | 8.15 | 1.88 | 4.25 | 4.34 | 22.4 | 1.89 | 16.9 | 1.39 | 4.36
2 | C#CCOc1cccc(-c2ncnc3cc(NC(=O)CCl)ccc23)c1 | 0.66 | 2.64 | 0.993 | 2.92 | 1.42 | 5.54 | 0.168 | 6.59 | 1.4 | 3.16 | 1.56 | 4.5 | 0.684 | 2.19 | 2.22 | 7.38 | 1.15 | 9.48 | 0.36 | 2.1
3 | COc1cc(C#Cc2ccc(=O)oc2C#Cc2ccccc2)cc(OC)c1OC | 2.38 | 5.98 | 3.4 | 17.8 | 2.59 | 7.41 | 2.93 | 10.3 | 2.21 | 4.34 | 2.64 | 7.22 | 2.02 | 4.77 | 15.2 | > 74.5 | 2.7 | 7.62 | 1.51 | 3.04
4 | COc1ccc(C(=O)/C=C/c2ccc(C)cc2)cc1OC | 13.7 | 26.5 | 15.5 | 32 | 13.5 | 31.5 | 11.8 | 27.6 | 12.2 | 26.4 | 16.5 | 30.1 | 12.5 | 25 | 14 | 27.4 | 8.93 | 21.3 | 11 | 26.8
5 | CNC(=O)c1ccc(N2CCN(Cc3ccc4nc(C)c(=O)[nH]c4c3F)CC2)c(F)n1 | > 100 | > 100 | > 100 | > 100 | 44.9 | > 100 | 58.7 | > 100 | 13.1 | 62.5 | > 100 | > 100 | 30.5 | > 100 | > 100 | > 100 | 16.4 | 63.8 | > 100 | > 100
6 | OCc1ccc(-c2ccc(-c3ccc(CO)o3)[se]2)o1 | 57.8 | > 100 | 42.5 | > 100 | 0.3 | 1.55 | 55.8 | > 100 | > 100 | > 100 | > 100 | > 100 | 34.8 | > 100 | > 100 | > 100 | 37 | > 100 | > 95.3 | > 100
7 | CC(C)(C)C(=O)c1c(C(F)(F)F)n([O-])c2ccccc2[n+]1=O | 1.45 | 4.85 | 0.606 | 1.68 | 0.84 | 2.48 | 0.254 | 1.35 | 0.868 | 2.28 | 1.13 | 6.12 | 0.24 | 0.83 | 1.67 | 3.07 | 0.46 | 2.05 | 0.342 | 0.729
8 | COc1ccc2c(C)cc(N/N=C/c3ccc(OC)c4ccccc34)nc2c1 |  | 31.9 |  | 24.1 |  | 29.6 |  | 39.6 |  | 39.8 |  | 31.6 |  | 30.3 |  | 33.8 |  | 42.2 |  | 25.6
9 | CCOc1ccc2nc(SCc3nc4n(n3)S(=O)(=O)c3ccccc3N4C)sc2c1 | > 100 | > 100 | > 100 | > 100 | > 100 | > 100 | 73 | > 100 | 30.1 | 97.3 | > 100 | > 100 | > 100 | > 100 | > 100 | > 100 | 28.8 | 83.8 | > 100 | > 100
10 | O=C(CO[N+](=O)[O-])Nc1ccc(C(=O)/C=C/c2ccc(Cl)cc2)cc1 | 2.05 | 4.96 | 2.96 | 11.2 | 5.15 | 29 | 3.24 | 14 | 4.82 | 17.8 | 4.96 | 18.1 | 4.23 | 15.3 | 10.1 | 65.9 | 3.19 | 17.6 | 1.52 | 12.1
11 | Nc1ccc(C2=NN(c3ccccc3)C(c3ccc(Cl)cc3)C2)cc1 (stereo not given) | 2.35 | 5.34 | 2.51 | 6.58 | 2.13 | 6.38 | 3.15 | 13.2 | 1.55 | 3.12 | 2.07 | 4.68 | 2.71 | 8.48 | 9.09 | 29.9 | 3.76 | 16.2 | 1.54 | 3.06
12 | Cn1cc(C2=C(c3cn(CCCCN)c4ccccc34)C(=O)NC2=O)c2ccccc21 | > 25 | > 25 | > 25 | > 25 | > 25 | > 25 | > 25 | > 25 | > 25 | > 25 | > 25 | > 25 | > 25 | > 25 | > 25 | > 25 | > 25 | > 25 | > 25 | > 25

Source: PubChem BioAssay (NCI)
